According to patent US20010039286A1, “2-aryl indole derivatives and their use as therapeutic agents” (priority 2000, published 2001):

melting point: 147 to 150 °C
Structure (SMILES): Cl.OC1(Cc2ccccc2)CCN(CCCc2c(-c3ccc(Cl)cc3)[nH]c3ccc(Cl)cc23)CC1
